DBAASP
Values after ≈ are worked out from the molar mass of the structure shown.

What was measured:
Experiment in all cases: ≥ marks a high value that may be exact or a test limit, other limits are often not marked, values filed in µg/mL are converted to µM
[1] = system: Acinetobacter baumannii Josh 230
[2] = system: Acinetobacter baumannii Josh 28
[3] = system: Enterobacter asburiae St. L P23
[4] = system: Enterobacter cloacae BB2012-181
[5] = system: Enterobacter cloacae BB2013-32
[6] = system: Enterobacter cloacae St. L P23
[7] = system: Escherichia coli ARLG-1012
[8] = system: Escherichia coli BB2013-30
Escherichia coli BW25113 = system: Escherichia coli BW25113
Escherichia coli JW55034 = system: Escherichia coli JW55034
[9] = system: Klebsiella aerogenes St. L P63
[10] = system: Klebsiella pneumoniae BB2009-209
[11] = system: Klebsiella pneumoniae J3702
[12] = system: Klebsiella pneumoniae Oschner KP-1
[13] = system: Pseudomonas aeruginosa ATCC 27853
[14] = system: Pseudomonas aeruginosa BB2013-100
[15] = system: Pseudomonas aeruginosa J4228
[16] = system: Acinetobacter baumannii CCARM 12035
[17] = system: Acinetobacter baumannii KCTC 2508
[18] = system: Bacillus subtilis KCTC 3068
[19] = system: Escherichia coli CCARM 1229
[20] = system: Escherichia coli KCTC 1682
[21] = system: Pseudomonas aeruginosa CCARM 2002
[22] = system: Pseudomonas aeruginosa KCTC 2004
[23] = system: Salmonella typhimurium CCARM 8007
[24] = system: Salmonella typhimurium KCTC 1926
[25] = system: Staphylococcus aureus CCARM 3126
[26] = system: Staphylococcus aureus KCTC 1621
[27] = system: Staphylococcus epidermidis KCTC 1917
[28] = system: Pseudomonas aeruginosa H1001
Acinetobacter baumannii = system: Acinetobacter baumannii
[29] = system: Escherichia coli ATCC 25922
Escherichia coli K88 = system: Escherichia coli K88
Escherichia coli K99 = system: Escherichia coli K99
Escherichia coli UB1005 = system: Escherichia coli UB1005
Escherichia coli = system: Escherichia coli
Klebsiella pneumoniae = system: Klebsiella pneumoniae
[30] = system: Pseudomonas aeruginosa CICC 21625
[31] = system: Pseudomonas aeruginosa CICC 21630
[32] = system: Pseudomonas aeruginosa PAO1
Pseudomonas aeruginosa = system: Pseudomonas aeruginosa
[33] = system: Salmonella enterica subsp. enterica serovar Pullorum C79-13
[34] = system: Salmonella enterica subsp. enterica serovar Typhimurium ATCC 14028
[35] = system: Salmonella enterica subsp. enterica serovar Typhimurium C77-31

## CC[C@H](C)[C@H](NC(=O)[C@H](C)N)C(=O)N[C@@H](CCCCN)C(=O)N[C@H](C(=O)N[C@@H](CCCN=C(N)N)C(=O)N[C@@H](CCCCN)C(=O)N[C@@H](CC(C)C)C(=O)N[C@@H](Cc1ccccc1)C(=O)N[C@@H](CCCCN)C(=O)N[C@@H](CCCCN)C(=O)N[C@@H](CC(C)C)C(=O)N[C@@H](CC(C)C)C(=O)N[C@@H](CCCN=C(N)N)C(N)=O)[C@@H](C)CC [AIKIRKLFKKLLR]
[1]
  MIC: 9.83 µM (≈ 16 µg/mL)
[2]
  MIC: 2.46 µM (≈ 4 µg/mL)
[3]
  MIC: 19.7 µM (≈ 32 µg/mL)
[4]
  MIC: 19.7 µM (≈ 32 µg/mL)
[5]
  MIC: 19.7 µM (≈ 32 µg/mL)
[6]
  MIC: 19.7 µM (≈ 32 µg/mL)
[7]
  MIC: 4.92 µM (≈ 8 µg/mL)
[8]
  MIC: 9.83 µM (≈ 16 µg/mL)
Escherichia coli BW25113
  MIC: 4.92 µM (≈ 8 µg/mL)
Escherichia coli JW55034
  MIC: 4.92 µM (≈ 8 µg/mL)
[9]
  MIC: 19.7 µM (≈ 32 µg/mL)
[10]
  MIC: 19.7 µM (≈ 32 µg/mL)
[11]
  MIC: 19.7 µM (≈ 32 µg/mL)
[12]
  MIC: 19.7 µM (≈ 32 µg/mL)
[13]
  MIC: 2.46 µM (≈ 4 µg/mL)
[14]
  MIC: 19.7 µM (≈ 32 µg/mL)
[15]
  MIC: 4.92 µM (≈ 8 µg/mL)

## CC[C@H](C)[C@H](NC(=O)[C@H](CCCCN)NC(=O)[C@H](Cc1c[nH]c2ccccc12)NC(=O)[C@@H](N)CCCN=C(N)N)C(=O)N[C@@H](Cc1ccccc1)C(=O)N[C@@H](CCCCN)C(=O)N[C@@H](CCCCN)C(=O)N[C@@H](C)C(=O)N[C@@H](C)C(=O)N[C@@H](CCCCN)C(=O)N[C@@H](CCCCN)C(=O)N[C@@H](C)C(N)=O [RWKIFKKAAKKA]
[16]
  MIC: 16 µM (≈ 23.6 µg/mL)
[17]
  MIC: ≥ 32 µM
[18]
  MIC: 16 µM (≈ 23.6 µg/mL)
[19]
  MIC: ≥ 32 µM
[20]
  MIC: 8 µM (≈ 11.8 µg/mL)
[21]
  MIC: ≥ 32 µM
[22]
  MIC: 8 µM (≈ 11.8 µg/mL)
[23]
  MIC: 16 µM (≈ 23.6 µg/mL)
[24]
  MIC: ≥ 32 µM
[25]
  MIC: ≥ 32 µM
[26]
  MIC: 8 µM (≈ 11.8 µg/mL)
[27]
  MIC: ≥ 32 µM

## CC(C)C[C@H](NC(=O)[C@H](Cc1ccc(O)cc1)NC(=O)[C@@H]1CCCN1C(=O)[C@@H]1CCCN1C(=O)[C@H](CCCCN)NC(=O)[C@H](CC(=O)O)NC(=O)[C@@H](N)C(C)C)C(=O)N1CCC[C@H]1C(=O)N[C@@H](CCCN=C(N)N)C(=O)N1CCC[C@H]1C(=O)N[C@@H](CCCN=C(N)N)C(=O)N1CCC[C@H]1C(=O)N1CCC[C@H]1C(=O)N[C@@H](CCCN=C(N)N)C(=O)N[C@@H](CCCN=C(N)N)C(=O)N[C@@H](CS)C(=O)N[C@@H](Cc1ccc(O)cc1)C(=O)N[C@@H](CC(N)=O)C(=O)N[C@@H](CCCN=C(N)N)C(=O)NCC(=O)O [VDKPPYLPRPRPPRRCYNRG]
[28]
  MIC: 0.0328 µM (≈ 0.08 µg/mL)

## CC[C@H](C)[C@H](NC(=O)[C@H](Cc1cnc[nH]1)NC(=O)[C@H](CCCCN)NC(=O)[C@H](CCCCN)NC(=O)[C@H](CC(C)C)NC(=O)[C@H](CCCCN)NC(=O)[C@H](CCCCN)NC(=O)[C@H](CC(C)C)NC(=O)[C@H](Cc1ccccc1)NC(=O)[C@H](Cc1ccccc1)NC(=O)[C@H](CCCCN)NC(=O)[C@@H](NC(=O)CN)[C@@H](C)CC)C(N)=O [GIKFFLKKLKKHI]
[1]
  MIC: 2.5 µM (≈ 4 µg/mL)
[2]
  MIC: 1.25 µM (≈ 2 µg/mL)
[3]
  MIC: 20 µM (≈ 32 µg/mL)
[4]
  MIC: 20 µM (≈ 32 µg/mL)
[5]
  MIC: 10 µM (≈ 16 µg/mL)
[6]
  MIC: 20 µM (≈ 32 µg/mL)
[7]
  MIC: 5 µM (≈ 8 µg/mL)
[8]
  MIC: 10 µM (≈ 16 µg/mL)
Escherichia coli BW25113
  MIC: 5 µM (≈ 8 µg/mL)
Escherichia coli JW55034
  MIC: 5 µM (≈ 8 µg/mL)
[9]
  MIC: 10 µM (≈ 16 µg/mL)
[10]
  MIC: 20 µM (≈ 32 µg/mL)
[11]
  MIC: 20 µM (≈ 32 µg/mL)
[12]
  MIC: 20 µM (≈ 32 µg/mL)
[13]
  MIC: 5 µM (≈ 8 µg/mL)
[14]
  MIC: 20 µM (≈ 32 µg/mL)
[15]
  MIC: 10 µM (≈ 16 µg/mL)

## CC(C)[C@H](N)C(=O)N[C@@H](CCCN=C(N)N)C(=O)N1CCC[C@H]1C(=O)N[C@H](C(=O)N[C@H](C(=O)N[C@@H](CCCN=C(N)N)C(=O)N1CCC[C@H]1C(=O)N[C@H](C(=O)N[C@H](C(=O)N[C@@H](CCCN=C(N)N)C(=O)N1CCC[C@H]1C(=O)N[C@H](C(=O)N[C@H](C(=O)N[C@@H](CCCN=C(N)N)C(=O)N1CCC[C@H]1C(=O)N[C@H](C(=O)N[C@H](C(=O)N[C@@H](CCCN=C(N)N)C(=O)N1CCC[C@H]1C(=O)N[C@H](C(=O)N[C@H](C(=O)N[C@@H](CCCN=C(N)N)C(=O)N1CCC[C@H]1C(=O)N[C@H](C(N)=O)C(C)C)C(C)C)C(C)C)C(C)C)C(C)C)C(C)C)C(C)C)C(C)C)C(C)C)C(C)C)C(C)C [VRPVVRPVVRPVVRPVVRPVVRPV]
Acinetobacter baumannii
  MIC: 4 µM (≈ 10.9 µg/mL)
[29]
  MIC: 64 µM (≈ 174 µg/mL)
Escherichia coli K88
  MIC: 8 µM (≈ 21.8 µg/mL)
Escherichia coli K99
  MIC: 16 µM (≈ 43.6 µg/mL)
Escherichia coli UB1005
  MIC: ≥ 32 µM
Escherichia coli
  MIC: 64 µM (≈ 174 µg/mL)
Klebsiella pneumoniae
  MIC: > 64 µM
[13]
  MIC: > 64 µM
[30]
  MIC: ≥ 64 µM
[31]
  MIC: ≥ 64 µM
[32]
  MIC: > 64 µM
Pseudomonas aeruginosa
  MIC: > 64 µM
[33]
  MIC: 8 µM (≈ 21.8 µg/mL)
[34]
  MIC: 16 µM (≈ 43.6 µg/mL)
[35]
  MIC: ≥ 32 µM

## CC[C@H](C)[C@H](NC(=O)[C@H](CCCCN)NC(=O)[C@H](Cc1c[nH]c2ccccc12)NC(=O)[C@@H](N)CCCN=C(N)N)C(=O)N[C@@H](Cc1ccccc1)C(=O)N[C@@H](CCCCN)C(=O)N[C@@H](CCCCN)C(=O)N[C@@H](C)C(=O)N[C@@H](C)C(=O)N[C@@H](CCCCN)C(=O)N[C@@H](CCCCN)C(=O)NCC(N)=O [RWKIFKKAAKKG]
[16]
  MIC: 16 µM (≈ 23.4 µg/mL)
[17]
  MIC: ≥ 32 µM
[18]
  MIC: 16 µM (≈ 23.4 µg/mL)
[19]
  MIC: ≥ 32 µM
[20]
  MIC: 8 µM (≈ 11.7 µg/mL)
[21]
  MIC: 16 µM (≈ 23.4 µg/mL)
[22]
  MIC: 8 µM (≈ 11.7 µg/mL)
[23]
  MIC: 16 µM (≈ 23.4 µg/mL)
[24]
  MIC: 16 µM (≈ 23.4 µg/mL)
[25]
  MIC: 16 µM (≈ 23.4 µg/mL)
[26]
  MIC: 16 µM (≈ 23.4 µg/mL)
[27]
  MIC: ≥ 32 µM

## NC(=O)[C@H](CCCN=C(N)N)NC(=O)[C@H](CCCN=C(N)N)NC(=O)[C@H](Cc1c[nH]c2ccccc12)NC(=O)[C@H](CCCN=C(N)N)NC(=O)[C@H](Cc1c[nH]c2ccccc12)NC(=O)[C@H](Cc1c[nH]c2ccccc12)NC(=O)[C@@H](N)CCCN=C(N)N [RWWRWRR]
[28]
  MIC: ≥ 208 µM
